From BindingDB's records for doi:10.1016/j.chembiol.2010.02.007 (Harvard Medical School, 2010)

Key:
Test in all cases: In Vitro Activity Kinase Assay
[1] = molecular target: Fibroblast growth factor receptor 4 (Homo sapiens, UniProt P22455)
Procedure: (§1) In vitro kinase assay profiled against a panel of different kinase binding assay using Ambit kinomeScan technology. Biochemical IC50 values were determined using the Z'-lyte assays format from Invitrogen.

[2] = molecular target: Vascular endothelial growth factor receptor 3 (Homo sapiens, UniProt P35916)
Procedure: as §1

[3] = molecular target: Fibroblast growth factor receptor 1 (Homo sapiens, UniProt P11362)
Procedure: as §1

[4] = molecular target: Mitogen-activated protein kinase 7 (Homo sapiens, UniProt Q13164)
Procedure: as §1

[5] = molecular target: Platelet-derived growth factor receptor beta (Homo sapiens, UniProt P09619)
Procedure: as §1

[6] = molecular target: Fibroblast growth factor receptor 3 (Homo sapiens, UniProt P22607)
Procedure: as §1

[7] = molecular target: Fibroblast growth factor receptor 2 (Homo sapiens, UniProt P21802)
Procedure: as §1

[8] = molecular target: Vascular endothelial growth factor receptor 2 (Homo sapiens, UniProt P35968)
Procedure: as §1

[9] = molecular target: Tyrosine-protein kinase Blk (Homo sapiens, UniProt P51451)
Procedure: as §1

[10] = molecular target: Hepatocyte growth factor receptor (Homo sapiens, UniProt P08581)
Procedure: as §1

[11] = molecular target: Mast/stem cell growth factor receptor Kit (Homo sapiens, UniProt P10721)
Procedure: as §1

[12] = molecular target: Vascular endothelial growth factor receptor 1 (Homo sapiens, UniProt P17948)
Procedure: as §1

Vascular endothelial growth factor receptor 1, sequence (P17948 whole entry): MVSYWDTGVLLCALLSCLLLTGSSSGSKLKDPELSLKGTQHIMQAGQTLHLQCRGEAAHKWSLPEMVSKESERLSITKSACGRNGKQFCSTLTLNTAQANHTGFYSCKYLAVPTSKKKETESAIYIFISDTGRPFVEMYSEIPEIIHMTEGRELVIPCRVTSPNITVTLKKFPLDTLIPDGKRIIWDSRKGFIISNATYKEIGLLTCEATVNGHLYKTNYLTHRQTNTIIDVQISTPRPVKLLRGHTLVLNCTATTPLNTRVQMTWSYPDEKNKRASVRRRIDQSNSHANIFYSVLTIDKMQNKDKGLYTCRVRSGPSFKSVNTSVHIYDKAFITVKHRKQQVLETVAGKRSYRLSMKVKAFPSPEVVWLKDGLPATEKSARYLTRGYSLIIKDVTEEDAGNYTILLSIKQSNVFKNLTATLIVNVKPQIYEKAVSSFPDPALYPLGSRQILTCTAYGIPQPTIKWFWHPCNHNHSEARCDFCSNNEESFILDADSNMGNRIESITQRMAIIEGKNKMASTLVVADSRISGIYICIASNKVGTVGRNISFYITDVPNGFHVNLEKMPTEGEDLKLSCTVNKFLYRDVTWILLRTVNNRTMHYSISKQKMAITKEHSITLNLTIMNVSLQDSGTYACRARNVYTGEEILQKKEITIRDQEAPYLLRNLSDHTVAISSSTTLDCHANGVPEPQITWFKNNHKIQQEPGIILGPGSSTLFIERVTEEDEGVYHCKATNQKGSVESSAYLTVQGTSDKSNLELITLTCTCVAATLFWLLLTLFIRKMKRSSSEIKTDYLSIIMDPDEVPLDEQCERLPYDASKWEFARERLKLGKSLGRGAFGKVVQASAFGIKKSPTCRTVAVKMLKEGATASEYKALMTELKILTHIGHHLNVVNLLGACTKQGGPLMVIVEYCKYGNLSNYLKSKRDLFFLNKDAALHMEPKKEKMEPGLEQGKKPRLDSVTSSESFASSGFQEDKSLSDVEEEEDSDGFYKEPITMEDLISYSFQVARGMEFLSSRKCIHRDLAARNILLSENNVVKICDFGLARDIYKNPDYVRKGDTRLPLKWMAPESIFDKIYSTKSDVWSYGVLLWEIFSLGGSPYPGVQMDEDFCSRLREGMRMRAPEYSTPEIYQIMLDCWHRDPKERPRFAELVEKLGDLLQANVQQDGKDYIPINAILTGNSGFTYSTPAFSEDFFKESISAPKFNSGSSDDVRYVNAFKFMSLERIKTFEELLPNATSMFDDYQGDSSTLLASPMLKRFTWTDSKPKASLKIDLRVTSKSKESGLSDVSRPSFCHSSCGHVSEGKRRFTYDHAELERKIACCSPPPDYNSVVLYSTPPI
Fibroblast growth factor receptor 4, sequence (P22455 whole entry): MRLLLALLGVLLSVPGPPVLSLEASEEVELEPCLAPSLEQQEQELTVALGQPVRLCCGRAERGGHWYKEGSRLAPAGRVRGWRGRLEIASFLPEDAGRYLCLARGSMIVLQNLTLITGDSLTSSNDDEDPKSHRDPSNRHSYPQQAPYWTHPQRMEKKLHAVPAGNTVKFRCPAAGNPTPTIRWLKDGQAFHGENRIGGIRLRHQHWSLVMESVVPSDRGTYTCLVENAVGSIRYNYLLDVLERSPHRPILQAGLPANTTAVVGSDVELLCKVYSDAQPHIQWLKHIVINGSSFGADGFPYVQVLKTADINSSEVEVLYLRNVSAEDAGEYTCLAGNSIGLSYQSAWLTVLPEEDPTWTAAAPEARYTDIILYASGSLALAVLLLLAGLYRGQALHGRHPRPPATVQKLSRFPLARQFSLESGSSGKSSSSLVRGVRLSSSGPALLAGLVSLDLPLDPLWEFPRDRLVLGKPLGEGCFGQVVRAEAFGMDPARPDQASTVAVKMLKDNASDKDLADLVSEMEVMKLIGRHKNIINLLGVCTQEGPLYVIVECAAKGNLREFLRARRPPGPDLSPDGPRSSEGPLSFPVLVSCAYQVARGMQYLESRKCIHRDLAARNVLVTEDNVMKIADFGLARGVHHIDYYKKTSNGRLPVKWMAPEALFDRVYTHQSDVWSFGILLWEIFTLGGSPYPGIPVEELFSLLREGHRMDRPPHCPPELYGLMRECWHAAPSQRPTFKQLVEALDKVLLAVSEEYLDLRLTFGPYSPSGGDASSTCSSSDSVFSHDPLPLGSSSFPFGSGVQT
Vascular endothelial growth factor receptor 2, sequence (P35968 whole entry): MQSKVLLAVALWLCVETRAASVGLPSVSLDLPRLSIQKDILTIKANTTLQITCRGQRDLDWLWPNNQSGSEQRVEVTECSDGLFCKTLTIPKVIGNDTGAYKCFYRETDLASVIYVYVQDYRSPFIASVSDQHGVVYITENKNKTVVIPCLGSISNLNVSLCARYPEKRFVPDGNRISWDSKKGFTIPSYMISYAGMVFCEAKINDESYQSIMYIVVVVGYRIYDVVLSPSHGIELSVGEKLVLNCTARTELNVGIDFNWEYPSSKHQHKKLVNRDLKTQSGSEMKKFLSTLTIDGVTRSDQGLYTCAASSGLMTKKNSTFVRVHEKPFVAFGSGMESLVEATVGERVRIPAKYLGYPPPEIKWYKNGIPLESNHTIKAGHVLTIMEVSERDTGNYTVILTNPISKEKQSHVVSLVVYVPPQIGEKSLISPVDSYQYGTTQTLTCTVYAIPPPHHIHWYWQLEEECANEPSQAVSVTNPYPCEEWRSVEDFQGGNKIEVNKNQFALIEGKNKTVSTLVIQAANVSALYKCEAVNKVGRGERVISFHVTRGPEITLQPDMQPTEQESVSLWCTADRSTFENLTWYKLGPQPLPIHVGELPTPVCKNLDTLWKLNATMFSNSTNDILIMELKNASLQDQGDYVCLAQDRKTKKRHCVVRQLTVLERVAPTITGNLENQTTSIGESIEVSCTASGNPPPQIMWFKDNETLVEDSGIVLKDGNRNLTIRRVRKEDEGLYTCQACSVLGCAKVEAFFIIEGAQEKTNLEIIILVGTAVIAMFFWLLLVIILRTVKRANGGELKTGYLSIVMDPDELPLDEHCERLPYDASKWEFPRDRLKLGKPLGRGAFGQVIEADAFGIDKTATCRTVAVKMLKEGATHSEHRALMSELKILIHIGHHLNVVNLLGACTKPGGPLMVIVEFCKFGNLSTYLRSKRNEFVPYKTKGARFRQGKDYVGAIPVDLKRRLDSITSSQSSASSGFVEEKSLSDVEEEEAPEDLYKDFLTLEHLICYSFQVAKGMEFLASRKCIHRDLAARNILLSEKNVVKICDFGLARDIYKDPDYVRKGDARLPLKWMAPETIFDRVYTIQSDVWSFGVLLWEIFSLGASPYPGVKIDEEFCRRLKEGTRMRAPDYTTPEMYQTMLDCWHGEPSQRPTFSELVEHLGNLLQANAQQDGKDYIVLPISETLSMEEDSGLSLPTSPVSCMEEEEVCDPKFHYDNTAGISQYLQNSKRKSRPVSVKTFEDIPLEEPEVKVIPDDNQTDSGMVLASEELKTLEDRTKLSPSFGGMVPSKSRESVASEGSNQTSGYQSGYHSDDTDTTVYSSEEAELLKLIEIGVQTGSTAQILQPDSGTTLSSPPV
Mast/stem cell growth factor receptor Kit, sequence (P10721 whole entry): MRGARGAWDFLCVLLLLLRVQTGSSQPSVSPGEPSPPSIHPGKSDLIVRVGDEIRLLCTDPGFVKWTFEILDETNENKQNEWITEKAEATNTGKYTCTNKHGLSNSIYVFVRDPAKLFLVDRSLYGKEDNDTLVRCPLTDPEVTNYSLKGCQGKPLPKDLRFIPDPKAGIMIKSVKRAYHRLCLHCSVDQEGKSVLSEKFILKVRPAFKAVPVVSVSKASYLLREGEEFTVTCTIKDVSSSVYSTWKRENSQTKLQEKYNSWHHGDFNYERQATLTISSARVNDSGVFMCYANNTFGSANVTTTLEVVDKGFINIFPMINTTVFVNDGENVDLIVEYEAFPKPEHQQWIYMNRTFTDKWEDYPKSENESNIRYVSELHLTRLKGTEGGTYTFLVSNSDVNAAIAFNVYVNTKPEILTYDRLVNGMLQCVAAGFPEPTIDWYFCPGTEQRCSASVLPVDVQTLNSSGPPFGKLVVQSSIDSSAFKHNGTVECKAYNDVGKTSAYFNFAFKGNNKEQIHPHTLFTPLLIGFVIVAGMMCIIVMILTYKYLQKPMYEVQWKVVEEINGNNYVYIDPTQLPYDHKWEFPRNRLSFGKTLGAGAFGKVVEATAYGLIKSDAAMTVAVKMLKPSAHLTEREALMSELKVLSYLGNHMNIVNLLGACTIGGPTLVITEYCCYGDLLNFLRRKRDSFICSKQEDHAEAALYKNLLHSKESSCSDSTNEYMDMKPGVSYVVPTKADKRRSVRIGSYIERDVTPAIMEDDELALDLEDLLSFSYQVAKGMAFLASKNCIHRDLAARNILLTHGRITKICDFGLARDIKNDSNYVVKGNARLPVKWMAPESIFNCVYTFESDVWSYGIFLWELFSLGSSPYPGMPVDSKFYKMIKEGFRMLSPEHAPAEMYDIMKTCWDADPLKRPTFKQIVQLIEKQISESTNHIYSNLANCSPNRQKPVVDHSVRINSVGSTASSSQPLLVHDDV
Tyrosine-protein kinase Blk, sequence (P51451 whole entry): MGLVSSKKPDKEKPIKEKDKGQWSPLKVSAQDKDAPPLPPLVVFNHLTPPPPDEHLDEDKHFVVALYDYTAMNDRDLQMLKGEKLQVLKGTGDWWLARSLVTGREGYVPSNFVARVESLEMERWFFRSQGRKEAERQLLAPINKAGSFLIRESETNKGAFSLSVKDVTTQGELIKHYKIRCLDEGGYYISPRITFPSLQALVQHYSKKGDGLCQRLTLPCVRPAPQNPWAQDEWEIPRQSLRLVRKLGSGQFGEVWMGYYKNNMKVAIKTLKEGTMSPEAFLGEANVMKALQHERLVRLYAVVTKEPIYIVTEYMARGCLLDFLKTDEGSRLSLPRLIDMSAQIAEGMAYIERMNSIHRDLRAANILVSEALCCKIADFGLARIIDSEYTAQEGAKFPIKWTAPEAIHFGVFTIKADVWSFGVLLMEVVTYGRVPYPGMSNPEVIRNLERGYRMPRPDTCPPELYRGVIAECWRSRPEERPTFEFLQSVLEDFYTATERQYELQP

CCNCCCCNc1ncc2c(n1)N(Cc1cccc(NC(=O)CC)c1)C(=O)N(c1c(Cl)c(OC)cc(OC)c1Cl)C2 [FRIN-1]
Kd [1]: 0.28 µM | Kd [2]: 0.34 µM | Kd [3]: 0.0031 µM | Kd [4]: 0.13 µM | Kd [5]: 0.48 µM | Kd [6]: 0.0054 µM | Kd [7]: 0.0056 µM | Kd [8]: 0.47 µM | Kd [9]: 2.3 µM | Kd [10]: 1.4 µM | Kd [11]: 0.25 µM | Kd [12]: 0.049 µM
